What was measured:
[1] = tested on: HIV-1 reference strain NL4-3; experiment: BiCycle assay (MT-2 then TZM-bl cells); format: cell-based
Procedure, shortened: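 MT-2 cells were infected with NL4-3 in the presence of five-fold compound dilutions. After 72 h, the supernatant was passed to TZM-bl cells. Two days later, luciferase luminescence was read and IC50 calculated, giving a readout that spans the whole replication cycle.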

[2] = tested on: HIV-1 reference strain NL4-3; experiment: MonoCycle assay (TZM-bl cells); format: cell-based
Procedure, shortened: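 TZM-bl cells (20,000/well) were infected with NL4-3 in the presence of five-fold serial inhibitor dilutions. After 48 h, cells were lysed and luciferase luminescence (RLU) was counted. IC50 was derived from the RLU data.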

[3] = target: T1, full length (1-55) HIV-1 NCp7 (Human immunodeficiency virus type 1 group M subtype B, UniProt P12493); experiment: Electromobility Shift Assay (EMSA), competition for ssDNA binding; details: NCp7 300 nM, M13mp18 ssDNA; positive = >25% inhibition at 100µM
T1 construct: recombinant full length (1-55) HIV-1 NCp7 proteins; made in house
Procedure, shortened: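 Recombinant NL4-3 NCp7 (300 nM in the pre-mix) was combined with compound in 20 mM Tris-HCl pH 7.4, 2 mM MgCl2, 100 mM NaCl, 1 mM DTT, then M13mp18 ssDNA was added for 25 min at 37 °C. Complexes were run on 1% agarose/0.5x TBE and stained with SybrGold. IC50 is the concentration at which bound ssDNA migrated 50% of the bound–unbound distance (triplicate).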

[4] = Human immunodeficiency virus 1, NL43, TZM-bl, read-out: BiCycle IC50 nM
[5] = Human immunodeficiency virus 1, NL43, TZM-bl, 48 h, read-out: Mono Cycle IC50 nM
[6] = Human immunodeficiency virus 1, NL43, MT-2 cells 72 hours then TZM-bl cells two days, NL4-3, read-out: BiCycle IC50
[7] = Human immunodeficiency virus 1, NL43, TZM-bl cells, NL4-3, 48 hours, read-out: Mono Cycle IC50

Compound	IC50 [1, 4] [nM]	IC50 [2, 5] [nM]	EMSA screening results [3]	IC50 [1, 6] [nM]	IC50 [2, 7] [nM]
C[C@H](NC(=O)c1nc(-c2cc(C(=O)OCc3ccccc3)ccn2)nc(O)c1O)C1CCCCC1 [Compound 71, benzyl (S)-2-(4-((1-cyclohexylethyl)carbamoyl)-5,6-dihydroxypyrimidin-2-yl)isonicotinate]	559	> 50000	Positive (A compound showing >25% inhibition when tested at 100µM concentration is considered as "positive")	–	–
C[C@H](NC(=O)c1nc(-c2ccc(C(=O)OCc3ccccc3)cn2)nc(O)c1O)C1CCCCC1 [Compound 70, benzyl (S)-6-(4-((1-cyclohexylethyl)carbamoyl)-5,6-dihydroxypyrimidin-2-yl)nicotinate]	190	> 50000	Positive (A compound showing >25% inhibition when tested at 100µM concentration is considered as "positive")	–	–
CC(NC(=O)c1nc(-c2nccc3ccccc23)nc(O)c1O)C1CCC(F)(F)CC1 (stereo not drawn) [Compound 90, N-(1-(4,4-difluorocyclohexyl)ethyl)-5,6-dihydroxy-2-(isoquinolin-1-yl)pyrimidine-4-carboxamide]	–	–	Positive (A compound showing >25% inhibition when tested at 100µM concentration is considered as "positive")	1790	> 50000
Cc1ccnc(-c2nc(O)c(O)c(C(=O)NC3(C4CCCCC4)CC3)n2)c1 [Compound 84, N-(1-cyclohexylcyclopropyl)-5,6-dihydroxy-2-(4-methylpyridin-2-yl)pyrimidine-4-carboxamide]	–	–	Positive (A compound showing >25% inhibition when tested at 100µM concentration is considered as "positive")	1880	21200
C[C@H](NC(=O)c1nc(-c2cc3ccccc3cn2)nc(O)c1O)C1CCCCC1 [Compound 72, (S)-N-(1-cyclohexylethyl)-5,6-dihydroxy-2-(isoquinolin-3-yl)pyrimidine-4-carboxamide]	382	13400	Positive (A compound showing >25% inhibition when tested at 100µM concentration is considered as "positive")	–	–
C[C@@H](NC(=O)c1nc(-c2cc(C(=O)NCc3ccccc3)ccn2)nc(O)c1O)C1CCCCC1 [Compound 74, (R)-2-(4-(benzylcarbamoyl)pyridin-2-yl)-N-(1-cyclohexylethyl)-5,6-dihydroxypyrimidine-4-carboxamide]	–	–	Positive (A compound showing >25% inhibition when tested at 100µM concentration is considered as "positive")	299	> 50000
C[C@H](NC(=O)c1nc(-c2ccc3ccccc3n2)nc(O)c1O)C1CCCCC1 [Compound 75, (S)-N-(1-cyclohexylethyl)-5,6-dihydroxy-2-(quinolin-2-yl)pyrimidine-4-carboxamide]	752	> 50000	Positive (A compound showing >25% inhibition when tested at 100µM concentration is considered as "positive")	–	–
Cc1cc(-c2nc(O)c(O)c(C(=O)N[C@H](C)C3CCCCC3)n2)nc2ccccc12 [Compound 73, (R)-N-(1-cyclohexylethyl)-5,6-dihydroxy-2-(4-methylquinolin-2-yl)pyrimidine-4-carboxamide]	–	–	Positive (A compound showing >25% inhibition when tested at 100µM concentration is considered as "positive")	358	> 50000
